Marks after values point to notes of the source that are not given here.

This note sets out measurements from patent publication EP0194794A2, “Saccharide digestion inhibiting composition” (Takeda Chemical Industries, Ltd., priority 1985, dated 1986).

A short description of series [1]: Property of feces in rats fed test ration, single organism (Reference Example 1). The class given is in vivo, male Jcl:SD rats. As to conditions: 36 to 48 hours. How it is done:
One gram of the mixture prepared in Example 1 and one gram of cells of lactic acid producing bacteria of a kind different from the bacteria used in Example 1 were mixed with 99 g of commercial powder feed (CE-2) to give a test ration. This ration was given to male Jcl:SD rats aged 7 weeks (6 animals per group) and the property of feces excreted after 36 to 48 hours was examined. Control animals received a mixture of 10 mg of AO-128 and 100 g of 'powder feed.

A short description of series [2]: Property of feces in rats fed test ration, 2 or more bacteria (Reference Example 2). In kind it is in vivo, Jcl:SD rats. As to conditions: 36 to 48 hours. How it is done:
Using 2 or more different bacteria, test rations were prepared by the same procedure as Reference Example 1. However, the amount of potato starch was reduced to adjust for the volume increase due to the cells to provide a composition containing cells of AO-128 and the composition was mixed with feed. The resulting ration was given to 7-week-old Jcl:SD rats (5 animals per group) and the property of feces after 36 to 48 hours was observed. Control rats received a mixture of 10 mg of AO-128 and 100 g of powder feed.

The nature of series [3]: Influence on dietary hyperglycemia and hyperinsulinemia (Reference Example 3). In kind it is in vivo, male Jcl:SD rats. As to conditions: mean ± SD, n=6. How it is done: The rations prepared in the same manner as Reference Example 1 were given to 8-week-old male Jcl:SD rats (6 individuals per group) which had not been fed for 24 hours to investigate how the administration of lactic acid producing bacteria would influence the inhibitory effect of AO-128 on the hyperglycemia and hyperinsuleinemia following a diet intake.
Blood samples were collected from the tail vein immediately before feeding and 30, 60 and 120 minutes after feeding and the plasma glucose and insulin levels were determined.

Series [4] is described as follows: 28-day feeding of rats with Zucker obesity (Reference Example 4). In kind it is in vivo, male rats with Zucker obesity. As to conditions: ration fed for 28 days. How it is done:
In the analysis for body fat, the liver, the adipose tissue of the epididymis, the digestive tract and its contents were removed and the remainder was used as a sample. The rations containing the bacterial cells were prepared every other day and fed.

The next series can be described thus: Acute toxicity study. As to conditions: oral administration, 10 g/kg body weight. In kind it is in vivo, rats. The source says:
When this was mixed with 10^11 cells of any of the 3 different lactic acid producing bacteria used in the present invention and the mixture was orally administered at the same time as AO-128 (10 g/kg body weight), no influence was observed.

In the case of `OCC(CO)N[C@H]1C[C@](O)(CO)[C@@H](O)[C@H](O)[C@H]1O` [AO-128, N-(1,3-Dihydroxy-2-propyl)valiolamine], the “Property of feces ±” value is 0 in series [1] (number of rats (6 per group) with fecal masses, a diffusion of water noted on filter paper) and 2 in series [2] (number of rats (5 per group) with fecal masses, diffusion of water on filter paper). The “Property of feces -” value in series [1] (number of rats (6 per group) with fecal masses, no diffusion of water on filter paper) is given as 0; in series [2] (number of rats (5 per group) with fecal masses, no diffusion of water on filter paper), 0. Further, the entries for the “Property of feces +” value in series [1] (number of rats (6 per group) with feces unformed (watery stool)) and in series [2] (number of rats (5 per group) with feces unformed (watery stool)) were 6 and 3, respectively. Moreover, the “Plasma glucose level 30 min.” value in series [3] (30 minutes after feeding) is 141± 8^a mg/dl. Besides, in series [3] (60 minutes after feeding), the “Plasma glucose level 60 min.” value is listed as 154±11^a mg/dl. In series [3] (120 minutes after feeding), the “Plasma glucose level 120 min.” value is 152±11^a mg/dl. In series [3] (immediately before feeding, rats not fed for 24 hours), the “Plasma glucose level 0 min.” value was determined as 101 ± 10 mg/dL. Moreover, the diarrhea in series [4] (animals with diarrhea / animals in group) was 6/6. The body fat in series [4] (carcass without liver, epididymal adipose tissue, digestive tract, n=6) is on record as 19.8±5.4^b %. The body weight gain in series [4] (mean ± SD, n=6) is reported as 132±28^a g/28day. Besides, the food consumption in series [4] (mean ± SD, n=6) is reported as 602±56^a g/28day. Further, in series [4] (mean ± SD, n=6), the food conversion is 21.9±3.6^b %. In addition, the “death in acute toxicity study” value in the series “Acute toxicity study” is given as “caused no death”.
